Assay results published in PubChem BioAssay (NCI).
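Cultured in 96-well plates, cells were exposed to test compound for 48 hours across five concentrations. GI50: concentration for 50% inhibition of growth. The concentration for full growth arrest is given as TGI.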

Legend:
Test in all cases: NCI tumour cell line growth inhibition, 48 h
[1] = tested on: BT-549 breast
[2] = tested on: HS 578T breast
[3] = tested on: MDA-MB-231 breast
[4] = tested on: MDA-MB-435
[5] = tested on: NCI/ADR-RES ovarian
[6] = tested on: PC-3 prostate

SMILES | GI50 [1] [µM] | TGI [1] [µM] | GI50 [2] [µM] | TGI [2] [µM] | GI50 [3] [µM] | TGI [3] [µM] | GI50 [4] [µM] | TGI [4] [µM] | GI50 [5] [µM] | TGI [5] [µM] | GI50 [6] [µM] | TGI [6] [µM]
COc1ccc(-c2c3c(N)nc(-c4ccncc4)nc3nc3c2c(C)nn3-c2ccccc2)cc1 | 41.5 | > 100 | 16.5 | > 100 | 3.71 | 46.5 | 5.29 | > 100 | 19.7 | > 100 | > 100 | > 100
O=C1/C(=C\c2c[nH]c3ccccc23)c2ccccc2N1c1c(Cl)cccc1Cl | 1.6 | 4.07 | – | – | 1.59 | 3.21 | 1.77 | 3.57 | – | – | 1.35 | 2.96
Nc1ccccc1C#C/C=C\C#Cc1cccs1 | 12.2 | 28.7 | 15.2 | 41.8 | – | 4.47 | 2.81 | 12.2 | 8.69 | 27.7 | 4.48 | 27.3
O=C1c2cccnc2C(=O)c2nc3cc(N4CCN(C5CC5)CC4)ccc3nc21 | 1.04 | 2.38 | 0.37 | 3.18 | 2.15 | 8.08 | 0.169 | 0.328 | 1.95 | 8.14 | 1.97 | 23.2
NCCOCCOCCNc1nc(Cc2ccccc2)nc(NCCCN2CCCC2=O)n1 | > 100 | > 100 | > 100 | > 100 | > 100 | > 100 | > 100 | > 100 | > 100 | > 100 | > 100 | > 100
CC1(C)CC(=O)c2c(C(F)(F)F)nn(-c3ccc(C(N)=O)c(NC4CCC(OC(=O)CN)CC4)c3)c2C1 (stereo not given) | 5.24 | 41.7 | 9.73 | > 100 | 0.112 | 31.5 | 0.0418 | > 47.3 | 12.5 | > 100 | 0.0688 | > 100
COc1cccc(-n2ncc3c(N/N=C/c4ccc(C(=O)NCCN(C)C)cc4)ncnc32)c1 | 4.33 | 8.1 | 0.57 | 6 | 3.4 | 7.23 | 1.93 | 5.81 | 5.25 | 11.2 | 2.97 | 6.47
O=C(O)/C=C\C(=O)N1C/C(=C\c2ccccc2Cl)C(=O)/C(=C/c2ccccc2Cl)C1 | 2.06 | 4.11 | – | – | 3.52 | 11.5 | 3.34 | 13.6 | 4.08 | 22.5 | 3.56 | 15.5
COc1ccc(-c2nn3c(-c4cc(F)c(Cl)cc4Cl)nnc3s2)cc1 | 24.4 | 69.7 | 43.3 | > 100 | 27.7 | > 100 | 4.86 | > 100 | 21.2 | 99.7 | 34.1 | > 100
O=c1cc(-c2ccccc2)[nH]c2ccccc12 | – | > 52.1 | 0.458 | > 23.2 | 4.09 | > 62.1 | – | – | 0.483 | – | 0.403 | > 100
COC(=O)[C@H](C[C@H](Cc1ccccc1)NC(=O)c1csc([C@@H](C[C@H](C(C)C)N(C)C(=O)[C@@H](NC(=O)[C@H]2CCCCN2C)C(C)C)OC(C)=O)n1)NC(=O)OCc1ccccc1 | < 0.0009 | 0.0689 | < 0.0009 | > 4.93 | 0.00108 | > 4.9 | < 0.0009 | < 0.0009 | 0.0333 | 1.52 | < 0.0009 | > 9
COc1ccc(/C=C(/C#N)C(N)=O)cc1OC | – | > 100 | – | > 100 | – | > 100 | – | > 100 | – | > 100 | – | > 100
COC(=O)[C@@]1(C)CC[C@]2(C)CC[C@]3(C)C4=CC=C5C(=CC(=O)C(O)=C5C)[C@]4(C)[C@@H](O)C[C@@]3(C)[C@@H]2C1 | 10.5 | 22.3 | 15.1 | 38 | 10.2 | 21.8 | 10.6 | 21.5 | 15.3 | 34.8 | 8.7 | 19
Cc1ccccc1[P+](Cc1ccccc1)(c1ccccc1)c1ccccc1 | 2.4 | 11.5 | 1.83 | 11.7 | 2.06 | 28 | 0.601 | 3.71 | > 100 | > 100 | 1.45 | > 100
COc1cc(/C=C/c2cc(O)c3cc(C(C)=O)c(=O)oc3c2)cc2c1O[C@]1(C)CC[C@@H](O)C(C)(C)[C@H]1C2 | – | > 61.2 | – | – | > 26.7 | > 92.3 | > 20.1 | > 45.7 | > 36.4 | > 88.9 | – | > 36
COc1cc(C2CC(c3ccc4c(c3)OCO4)=NN2C=O)cc(OC)c1OC (stereo not given) | 5.21 | > 100 | 2.43 | 28.5 | > 25.3 | > 100 | 0.26 | 1.13 | 1.13 | > 20.1 | 4.92 | > 100
NCCn1c(=O)[nH]c(=O)[nH]c1=S | > 100 | > 100 | > 100 | > 100 | > 100 | > 100 | > 100 | > 100 | > 100 | > 100 | > 100 | > 100
CN(C)CCCNC(CC#N)CCC#N (stereo not given) | – | > 10 | – | > 10 | – | > 10 | – | > 10 | – | > 10 | – | > 10
C=CCOc1cccc(/C=C2\SC(=Nc3ccc(O)cc3)NC2=O)c1 | 0.529 | 3.4 | 0.414 | 12.4 | 0.975 | 6.62 | 0.155 | 0.315 | 0.494 | 17.1 | 0.537 | > 48.4
CC[C@@H](C(=O)O)C1CC[C@H](C)C([C@@H](C)[C@H](O)[C@H](C)C(=O)[C@H](CC)C2O[C@]3(C=C[C@@H](O)[C@]4(CC[C@@](C)(C5CC[C@](O)(CC)[C@H](C)O5)O4)O3)[C@H](C)C[C@@H]2C)O1 (stereo not given in full) | 0.184 | 3.19 | 0.0767 | 12.4 | 0.863 | 5.51 | 1.04 | 2.77 | 0.443 | 34.7 | 0.0657 | 45.8

SMILES | GI50 [1] [µM] | TGI [1] [µM] | GI50 [2] [µM] | TGI [2] [µM] | GI50 [3] [µM] | TGI [3] [µM] | GI50 [4] [µM] | TGI [4] [µM] | GI50 [5] [µM] | TGI [5] [µM] | GI50 [6] [µM] | TGI [6] [µM]
COc1ccc(-c2ccc(/C=N/n3c(COc4ccc(Cl)cc4Cl)nn(CN4CCOCC4)c3=S)o2)c([N+](=O)[O-])c1 | 13.2 | 44.6 | – | – | – | – | 18.6 | 51.5 | 21.1 | 58.7 | 18.6 | 50.6
COc1ccc(OC)c(/C=C2\SC(=S)NC2=O)c1 | – | – | 20.7 | 55.5 | 14.2 | 43.2 | 39 | > 100 | 25.4 | 87.5 | 35 | > 100
COc1ccc(-c2nc3sc4c(c3c(=O)[nH]2)CCCCCC4)cc1 | 5.4 | > 33.2 | 1.78 | > 33.2 | 4.04 | > 33.2 | 0.107 | 0.838 | 2.16 | > 33.2 | > 33.2 | > 33.2
C[C@@H]1C[C@H]2CC[C@H](O2)[C@H](C)C(=O)O[C@@H](C)C[C@@H]2CC[C@@H](O2)[C@@H](C)C(=O)O[C@H](C)C[C@H]2CC[C@H](O2)[C@H](C)C(=O)O[C@@H](C)C[C@@H]2CC[C@@H](O2)[C@@H](C)C(=O)O1 | – | > 100 | – | 54.3 | – | – | – | > 49.3 | – | 21 | – | 2.46
Cc1ccc(-c2cn3ccnc3c(-c3ccc(Cl)cc3)n2)cc1 | 2.3 | 65.3 | 0.115 | 9.39 | 0.506 | 50.1 | < 0.0126 | 0.185 | 0.102 | > 30.6 | 0.356 | > 100
COc1ccc(-c2csc(N(C(=O)N3CCN(c4cc5c(cc4F)c(=O)c(C(=O)O)cn5C4CC4)CC3)c3ccccc3)n2)cc1 | 1.6 | 7.63 | 1.48 | > 100 | 2.44 | 8.13 | 3.51 | > 100 | 3.78 | > 100 | 2.77 | > 100
COc1cc2c(c(OC)c1)C1c3ccccc3NC(=O)N1CC2 (stereo not given) | 6.24 | 80.7 | 6.3 | > 100 | 3.98 | > 100 | – | – | – | – | 3.89 | > 100
CCCC(C)c1cc(Cc2cc(Cl)cc(Cl)c2O)c(O)c(Cc2cc(Cl)cc(Cl)c2O)c1 (stereo not given) | 1.33 | 5.2 | 0.836 | 8.32 | 1.24 | 4.19 | 2.31 | 10.3 | 1.66 | 11.2 | 0.43 | 4.52
COc1ccc2sc3c(NCCCN(C)C)nc4ccccc4c3c(=O)c2c1 | 5.24 | 18.1 | 1.49 | 3.26 | 1.38 | 2.8 | 1.59 | 2.98 | 1.64 | 3.28 | 1.62 | 3.22
CC#C[C@]1(O)CC[C@H]2[C@@H]3CCC4=CC(=O)CCC4=C3[C@@H](c3ccc4c(c3)OCO4)C[C@@]21C | 22.3 | 122 | 101 | 537 | 90.1 | 327 | 106 | 390 | 92.4 | > 1000 | 39.7 | 340
COc1cccc2c1c(C(=O)C(=O)Nc1cc(C)no1)cn2Cc1ccc(F)cc1 | 5.36 | > 100 | 3.47 | > 56.9 | 5.41 | > 100 | 1.08 | 3.64 | 3.78 | > 24 | 11 | > 84.9
CC(CCC(=O)O)[C@H]1CCC2[C@@H]3CC[C@@H]4CC(O)CC[C@]4(C)C3CC[C@@]21C (stereo not given in full) | 53.9 | > 100 | – | – | 58.7 | > 100 | 37.5 | > 100 | 54.3 | > 100 | 26.2 | 72.3
Cc1ccc(N=Nc2c(O)c(C(=O)O)cc3ccccc23)cc1C | – | > 100 | – | > 100 | – | > 100 | – | > 100 | – | > 100 | – | > 100
CCOC(=O)c1cc(NS(=O)(=O)c2ccccc2)cc(C(=O)OCC)c1 | > 100 | > 100 | > 100 | > 100 | > 100 | > 100 | > 100 | > 100 | > 100 | > 100 | > 100 | > 100
Nc1nc2c(c3ncncc13)C(c1cccc(C(F)(F)F)c1)Cc1ncncc1-2 (stereo not given) | 4.08 | 21.5 | 4.71 | 45.9 | 11.1 | 31.3 | – | – | 3.48 | > 100 | 4.71 | > 100
COc1ccc(-c2n/c(=C\c3c(O)[nH]c4ccc(OC)cc34)cc3c2=Nc2ccccc2-3)cc1 | – | – | 1.94 | 4.82 | 1.73 | 4.27 | – | – | – | – | 22.1 | > 100
COc1ccc2c(c1)/C(=C\c1c(C)nc3sccn13)C(=O)N2 | – | > 82.9 | 0.224 | 15.2 | < 0.01 | 26.2 | – | – | – | > 42.2 | 0.179 | > 100
N#Cc1c(N2CCCC2)[nH]c(=O)c(C(c2c(Cl)cccc2Cl)c2c(O)c(C#N)c(N3CCCC3)[nH]c2=O)c1O | 2.3 | 6.25 | 2.75 | 19.1 | – | – | 9.6 | 25.2 | 15.4 | 33.8 | 14.5 | 28.3
O=C(/C=C/c1ccccc1)c1cc(Br)ccc1O | – | 33 | – | 59.3 | – | 42.5 | – | 32.6 | – | 34.9 | – | 33.7
CCCCC(CC)CN=C(N)NC(N)=NCCCCCCN=C(N)NC(N)=NCC(CC)CCCC (stereo not given) | – | – | – | – | 1.85 | 3.65 | – | – | 10.4 | 33.6 | – | –
